Data on 22 compounds can be found in patent publication US8969362B2 (priority 2004, dated 2015).

Broadly, the melting point is the temperature, or range, at which the solid turns liquid.

The subject of one data set is rat spleen cells. In words: cells. To be noted: 24 h, read-out: Minimum effective concentration (interferon inducing activity). It counts as cell-based.
For `CCCCOc1nc(N)c2[nH]c(=O)n(CCOc3cccc(C(=O)O)c3)c2n1` [Comparison Example 1, 2-butoxy-8-oxo-9-[2-(3-hydroxycarbonylphenoxy)ethyl]adenine, reference compound], the minimal effective concentration turned out to be 0.01 µM.
Still for that read-out and setting: the figure for `CCCCOc1nc(N)c2[nH]c(=O)n(CCOc3cccc(CC(=O)O)c3)c2n1` [Comparison Example 2, 2-butoxy-8-oxo-9-[2-(3-hydroxycarbonylmethylphenoxy)ethyl]adenine, reference compound] is 0.03 µM.

Tested on in the next data set: not given
Assay: not given
Settings: not given
`CCCCOc1nc(N)c2[nH]c(=O)n(CCCNCc3cccc(C(=O)OC)c3)c2n1` [Example 2-3, Methyl 3-({[3-(6-amino-2-butoxy-8-oxo-7,8-dihydro-9H-purin-9-yl)propyl]amino}methyl)benzoate]: the melting point lay within 214 to 218 °C.
Same read-out and setting: the figure for `CCCCOc1nc(N)c2[nH]c(=O)n(CCCCNS(=O)(=O)c3ccc(CCC(=O)OC)cc3)c2n1` [Example 2-11, Methyl 3-[4-({[4-(6-amino-2-butoxy-8-oxo-7,8-dihydro-9H-purin-9-yl)butyl]amino}sulfonyl)phenyl]propanoate] is 150 to 152 °C; for `CCCCOc1nc(N)c2[nH]c(=O)n(CCCCNS(=O)(=O)c3ccc(CCC(=O)O)cc3)c2n1` [Example 2-12, 3-[4-({[4-(6-Amino-2-butoxy-8-oxo-7,8-dihydro-9H-purin-9-yl)butyl]amino}sulfonyl)phenyl]propionic acid] it is 210 to 211 °C.
Still for that read-out and setting: the figure for `CCCCOc1nc(N)c2[nH]c(=O)n(CCCCN(CCN3CCCC3)S(=O)(=O)c3cccc(CC(=O)O)c3)c2n1` [Example 2-14, (3-{[[4-(6-Amino-2-butoxy-8-oxo-7,8-dihydro-9H-purin-9-yl)butyl](2-pyrrolidin-1-ylethyl)amino]sulfonyl}phenyl)acetic acid] is 192 to 193 °C; for `CCCCOc1nc(N)c2[nH]c(=O)n(CCCCN(CCOC)S(=O)(=O)c3cccc(CC(=O)OC)c3)c2n1` [Example 2-15, Methyl (3-{[[4-(6-amino-2-butoxy-8-oxo-7,8-dihydro-9H-purin-9-yl)butyl](2-methoxyethyl)amino]sulfonyl}phenyl)acetate] it is 182 to 183 °C; for `CCCCOc1nc(N)c2[nH]c(=O)n(CCCCN(CCOC)S(=O)(=O)c3cccc(CC(=O)O)c3)c2n1` [Example 2-16, (3-{[[4-(6-Amino-2-butoxy-8-oxo-7,8-dihydro-9H-purin-9-yl)butyl](2-methoxyethyl)amino]sulfonyl}phenyl)acetic acid] it is 171 to 172 °C.
Still for that read-out and setting: for `CCCCOc1nc(N)c2[nH]c(=O)n(CCCCN(C)S(=O)(=O)c3cccc(CC(=O)O)c3)c2n1` [Example 2-18, (3-{[[4-(6-Amino-2-butoxy-8-oxo-7,8-dihydro-9H-purin-9-yl)butyl](methyl)amino]sulfonyl}phenyl)acetic acid] the value was 171 to 172 °C; for `CCCCOc1nc(N)c2[nH]c(=O)n(CCCCN(CC(C)(C)CN(C)C)S(=O)(=O)c3cccc(CC(=O)O)c3)c2n1` [Example 2-20, [3-({[4-(6-Amino-2-butoxy-8-oxo-7,8-dihydro-9H-purin-9-yl)butyl][3-(dimethylamino)-2,2-dimethylpropyl]amino}sulfonyl)phenyl]acetic acid], 175 to 176 °C.
As for `CCCCOc1nc(N)c2[nH]c(=O)n(CCCNS(=O)(=O)c3cccc(CC(=O)OC)c3)c2n1` [Example 2-21, Methyl [3-({[3-(6-amino-2-butoxy-8-oxo-7,8-dihydro-9H-purin-9-yl)propyl]amino}sulfonyl)phenyl]acetate], the melting point was in the range of 218 to 219 °C.
The same measure, in the same setting: the figure for `CCCCOc1nc(N)c2[nH]c(=O)n(CCCCN(CC(C)(C)O)S(=O)(=O)c3cccc(CC(=O)OC)c3)c2n1` [Example 2-22, Methyl (3-{[[4-(6-amino-2-butoxy-8-oxo-7,8-dihydro-9H-purin-9-yl)butyl](2-hydroxy-2-methylpropyl)amino]sulfonyl}phenyl)acetate] is 192 to 193 °C; for `CCCCOc1nc(N)c2[nH]c(=O)n(CCCCN(Cc3cccc(CC(=O)O)c3)CC(C)(C)CN(C)C)c2n1` [Example 2-32, [3-({[4-(6-Amino-2-butoxy-8-oxo-7,8-dihydro-9H-purin-9-yl)butyl][3-(dimethylamino)-2,2-dimethylpropyl]amino}methyl)phenyl]acetic acid] it is 189 to 190 °C; for `CCCCOc1nc(N)c2[nH]c(=O)n(CCCCN(CCCN3CCCC3=O)Cc3cccc(CC(=O)OC)c3)c2n1` [Example 2-33, Methyl [3-({[4-(6-amino-2-butoxy-8-oxo-7,8-dihydro-9H-purin-9-yl)butyl][3-(2-oxopyrrolidin-1-yl)propyl]amino}methyl)phenyl]acetate] it is 115 to 116 °C.
Regarding `CCCCOc1nc(N)c2[nH]c(=O)n(CCCCN(CCN3CCOCC3)Cc3cccc(CC(=O)OC)c3)c2n1` [Example 2-35, Methyl (3-{[[4-(6-amino-2-butoxy-8-oxo-7,8-dihydro-9H-purin-9-yl)butyl](2-morpholin-4-ylethyl)amino]methyl}phenyl)acetate], the melting point was in the range of 189 to 190 °C.
Take `CCCCOc1nc(N)c2[nH]c(=O)n(CCSc3cccc(CC(=O)OC)c3)c2n1` [Example 2-39, Methyl (3-{[2-(6-amino-2-butoxy-8-oxo-7,8-dihydro-9H-purin-9-yl)ethyl]thio}phenyl)acetate]: the melting point was 232 to 233 °C.
On the same count and under the same terms, for `CCCCOc1nc(N)c2[nH]c(=O)n(CCSc3cccc(CC(=O)O)c3)c2n1` [Example 2-40, (3-{[2-(6-Amino-2-butoxy-8-oxo-7,8-dihydro-9H-purin-9-yl)ethyl]thio}phenyl)acetic acid] the value was 205 to 207 °C.
Still for that read-out and setting: the figure for `CCCCOc1nc(N)c2[nH]c(=O)n(CCNc3cccc(CC(=O)OC)c3)c2n1` [Example 2-41, Methyl (3-{[2-(6-amino-2-butoxy-8-oxo-7,8-dihydro-9H-purin-9-yl)ethyl]amino}phenyl)acetate] is 222 to 223 °C; for `CCCCOc1nc(N)c2[nH]c(=O)n(CCCNc3cccc(CC(=O)OC)c3)c2n1` [Example 2-42, Methyl (3-{[3-(6-amino-2-butoxy-8-oxo-7,8-dihydro-9H-purin-9-yl)propyl]amino}phenyl)acetate] it is 208 to 209 °C; for `CCCCOc1nc(N)c2[nH]c(=O)n(CCCNc3cccc(CC(=O)O)c3)c2n1` [Example 2-43, (3-{[3-(6-Amino-2-butoxy-8-oxo-7,8-dihydro-9H-purin-9-yl)propyl]amino}phenyl)acetic acid] it is 247 °C.
Still for that read-out and setting: the figure for `CCCCOc1nc(N)c2[nH]c(=O)n(CCS(=O)(=O)c3cccc(CC(=O)OC)c3)c2n1` [Example 2-48, Methyl (3-{[2-(6-amino-2-butoxy-8-oxo-7,8-dihydro-9H-purin-9-yl)ethyl]sulfonyl}phenyl)acetate] is 246 to 247 °C; for `CCCCOc1nc(N)c2[nH]c(=O)n(CCN(C)Cc3cccc(CC(=O)O)c3)c2n1` [Example 2-50, (3-{[[2-(6-Amino-2-butoxy-8-oxo-7,8-dihydro-9H-purin-9-yl)ethyl](methyl)amino]methyl}phenyl)acetic acid] it is 164 to 166 °C.
